One data set deals with recombinant MV-Edm. Kind of data set: virus yield reduction assay, MV-Edm. Particulars: 36 hours post-infection. It is filed as cell-based, measles virus.
Another data set relates to Vero cells. Kind of data set: Trypan blue exclusion assay. The following applies: 30 hours.
The subject of data set [1] is MV-Anc. Kind of data set: compound specificity assay (BSA, higher virus inoculum). It is filed as cell-based, measles virus. How it is done:
Bovine serum albumin (BSA) was added to some samples at a final concentration of 10 mg/ml.

Data set [2] concerns canine distemper virus (CDV). In kind it is cell-based. Particulars: read-out: IC50 against CDV.
In data set [3] the test system is human parainfluenzavirus type 2 (hPIV2). It is filed as cell-based. Particulars: read-out: IC50 against hPIV2.
The subject of data set [4] is MV-Anc. Kind of data set: compound stability under physiological conditions. The following applies: 15 μM, 37° C., pre-incubation for 24 hours. In kind it is physicochemical, measles virus. As for the experimental part:
To assess compound stability under physiological conditions, inhibitor compound 16677 was dissolved in growth medium (15 μM final concentration) and incubated at 37° C. and physiological pH for different time intervals (24 hours longest). Control samples contained equal amounts of DMSO and were likewise incubated for 24 hours. Subsequent to pre-incubation, MV was added to the compound aliquots and the mixtures transferred to 4×10^5 target cells seeded in a 6-well plate format (resulting MOI=0.1 pfu/cell). Thirty-six hours post-infection, cell-associated viral particles were harvested and virus titers determined by TCID50 titration.

Data set [5] has as its system MV. Kind of data set: dissociation assay (dialysis). It is filed as cell-based, measles virus. Particulars: 15 μM, dialysis against PBS. As for the experimental part: Viral particles (4×10^4 pfu, equaling an MOI=[…]) were mixed with compound 16677 (final concentration 15 μM) dissolved in phosphate buffered saline (PBS). After 10-minute incubation at 37° C. to allow compound binding, samples were either subjected to dialysis against PBS (molecular weight cut off=75 kDa, dilution factor 100,000×, 4° C., 10 hours) or incubated for 10 hours at 4° C. without dialysis. Control samples were treated with DMSO-only and subjected to dialysis. All samples were then transferred to 4×10^5 target cells seeded in a 6-well plate, cell-associated viral particles harvested 36 hours post-infection and viral titers determined by TCID50 titration.

Data set [6] concerns panel of primary MV isolates. Nature of the data set: virus yield dose-response, primary MV isolates. In kind it is cell-based, measles virus. How it is done:
For assessment of clinical MV isolates, compound was added in 3-fold dilutions (37.5 μM highest). Thirty-six hours post-infection, cell-associated viral particles were harvested and titered as described above.

In data set [7] the test system is MV. Nature of the data set: virus entry assay (pH 3.0 wash). In kind it is cell-based, measles virus. The following applies: 10 μM, compared to DMSO-treated cells. As for the experimental part: For entry experiments, viral particles (MOI=0.5) were absorbed to 4×10^5 target cells in a 6-well plate format at 4° C. in the presence of 10 μM compound 16677 or equal amounts of DMSO for one hour. Cells were then shifted to 37° C. for 30 minutes, followed by inactivation of adsorbed, extracellular virions by a 2-minute acid treatment (40 mM sodium citrate, 10 mM KCl, 135 mM NaCl, pH 3.0) at 25° C. as previously described (37,39,49). Subsequent incubation for 30 hours at 37° C. in the presence or absence of 10 μM compound 16677 as specified was followed by determination of cell-associated virus titers by TCID50 titration.

The subject of data set [8] is MV. Kind of data set: time of compound addition assay. The following applies: 15 μM added 12 hours post-infection, harvest 20 hours post-infection. It is filed as cell-based, measles virus. As for the experimental part:
Cells (3×10^5/well in a 12-well plate format) were infected with MV at an MOI=[…] and compounds compound 16677 (final concentration 15 μM) or AS-48 (final concentration 75 μM) added at the indicated time points. Control cells were infected in the presence of equal amounts of DMSO. Twenty hours post-infection, when virus-induced cytopathicity exceeded 90%, cell-associated viral particles were harvested and subjected to TCID50 titration.

The next data set concerns the target MV polymerase complex (Measles virus, UniProt P12576). It is filed as cell-based.
The next data set deals with Nipah virus polymerase (Nipah virus, UniProt Q997F0). It is filed as cell-based.
The next data set has as its target T7 polymerase (Escherichia phage T7, UniProt P00573). Nature of the data set: in vitro protein transcription/translation. In kind it is biochemical. The following applies: 50 μM compound vs untreated. How it is done:
Rabbit reticulocyte lysates were mixed with 0.5 μg plasmid DNA encoding MV F under the control of the T7 promoter (pT7-MV F), 20 μCi [^35S]-methionine, and compound 16677 (final concentration 50 μM) or equal volumes of DMSO. Samples were incubated at 30° C. for 90 min, mixed with urea buffer (200 mM Tris, pH 6.8; 8 M urea; 5% SDS; 0.1 mM EDTA; 0.03% bromphenolblue; 1.5% dithiothreitol), and fractionated on 12% polyacrylamide gels. Dried gels were exposed to Kodak XAR films.

Molecules are shown by their SMILES. Bounds are passed on as bounds.

Chain of MV polymerase complex (P03422 whole entry): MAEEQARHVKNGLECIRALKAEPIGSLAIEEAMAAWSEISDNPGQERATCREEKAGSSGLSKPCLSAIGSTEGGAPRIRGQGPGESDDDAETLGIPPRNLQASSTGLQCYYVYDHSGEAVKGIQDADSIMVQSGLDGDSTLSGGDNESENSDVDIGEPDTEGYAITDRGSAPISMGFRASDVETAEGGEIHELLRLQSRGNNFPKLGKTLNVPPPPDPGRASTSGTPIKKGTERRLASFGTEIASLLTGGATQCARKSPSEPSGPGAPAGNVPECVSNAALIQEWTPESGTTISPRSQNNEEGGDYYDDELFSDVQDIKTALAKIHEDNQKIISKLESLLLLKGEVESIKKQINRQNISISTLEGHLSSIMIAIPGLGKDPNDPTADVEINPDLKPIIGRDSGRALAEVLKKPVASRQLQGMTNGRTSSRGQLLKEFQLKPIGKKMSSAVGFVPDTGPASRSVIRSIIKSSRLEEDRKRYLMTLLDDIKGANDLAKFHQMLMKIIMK
Chain of MV polymerase complex (P12576 whole entry): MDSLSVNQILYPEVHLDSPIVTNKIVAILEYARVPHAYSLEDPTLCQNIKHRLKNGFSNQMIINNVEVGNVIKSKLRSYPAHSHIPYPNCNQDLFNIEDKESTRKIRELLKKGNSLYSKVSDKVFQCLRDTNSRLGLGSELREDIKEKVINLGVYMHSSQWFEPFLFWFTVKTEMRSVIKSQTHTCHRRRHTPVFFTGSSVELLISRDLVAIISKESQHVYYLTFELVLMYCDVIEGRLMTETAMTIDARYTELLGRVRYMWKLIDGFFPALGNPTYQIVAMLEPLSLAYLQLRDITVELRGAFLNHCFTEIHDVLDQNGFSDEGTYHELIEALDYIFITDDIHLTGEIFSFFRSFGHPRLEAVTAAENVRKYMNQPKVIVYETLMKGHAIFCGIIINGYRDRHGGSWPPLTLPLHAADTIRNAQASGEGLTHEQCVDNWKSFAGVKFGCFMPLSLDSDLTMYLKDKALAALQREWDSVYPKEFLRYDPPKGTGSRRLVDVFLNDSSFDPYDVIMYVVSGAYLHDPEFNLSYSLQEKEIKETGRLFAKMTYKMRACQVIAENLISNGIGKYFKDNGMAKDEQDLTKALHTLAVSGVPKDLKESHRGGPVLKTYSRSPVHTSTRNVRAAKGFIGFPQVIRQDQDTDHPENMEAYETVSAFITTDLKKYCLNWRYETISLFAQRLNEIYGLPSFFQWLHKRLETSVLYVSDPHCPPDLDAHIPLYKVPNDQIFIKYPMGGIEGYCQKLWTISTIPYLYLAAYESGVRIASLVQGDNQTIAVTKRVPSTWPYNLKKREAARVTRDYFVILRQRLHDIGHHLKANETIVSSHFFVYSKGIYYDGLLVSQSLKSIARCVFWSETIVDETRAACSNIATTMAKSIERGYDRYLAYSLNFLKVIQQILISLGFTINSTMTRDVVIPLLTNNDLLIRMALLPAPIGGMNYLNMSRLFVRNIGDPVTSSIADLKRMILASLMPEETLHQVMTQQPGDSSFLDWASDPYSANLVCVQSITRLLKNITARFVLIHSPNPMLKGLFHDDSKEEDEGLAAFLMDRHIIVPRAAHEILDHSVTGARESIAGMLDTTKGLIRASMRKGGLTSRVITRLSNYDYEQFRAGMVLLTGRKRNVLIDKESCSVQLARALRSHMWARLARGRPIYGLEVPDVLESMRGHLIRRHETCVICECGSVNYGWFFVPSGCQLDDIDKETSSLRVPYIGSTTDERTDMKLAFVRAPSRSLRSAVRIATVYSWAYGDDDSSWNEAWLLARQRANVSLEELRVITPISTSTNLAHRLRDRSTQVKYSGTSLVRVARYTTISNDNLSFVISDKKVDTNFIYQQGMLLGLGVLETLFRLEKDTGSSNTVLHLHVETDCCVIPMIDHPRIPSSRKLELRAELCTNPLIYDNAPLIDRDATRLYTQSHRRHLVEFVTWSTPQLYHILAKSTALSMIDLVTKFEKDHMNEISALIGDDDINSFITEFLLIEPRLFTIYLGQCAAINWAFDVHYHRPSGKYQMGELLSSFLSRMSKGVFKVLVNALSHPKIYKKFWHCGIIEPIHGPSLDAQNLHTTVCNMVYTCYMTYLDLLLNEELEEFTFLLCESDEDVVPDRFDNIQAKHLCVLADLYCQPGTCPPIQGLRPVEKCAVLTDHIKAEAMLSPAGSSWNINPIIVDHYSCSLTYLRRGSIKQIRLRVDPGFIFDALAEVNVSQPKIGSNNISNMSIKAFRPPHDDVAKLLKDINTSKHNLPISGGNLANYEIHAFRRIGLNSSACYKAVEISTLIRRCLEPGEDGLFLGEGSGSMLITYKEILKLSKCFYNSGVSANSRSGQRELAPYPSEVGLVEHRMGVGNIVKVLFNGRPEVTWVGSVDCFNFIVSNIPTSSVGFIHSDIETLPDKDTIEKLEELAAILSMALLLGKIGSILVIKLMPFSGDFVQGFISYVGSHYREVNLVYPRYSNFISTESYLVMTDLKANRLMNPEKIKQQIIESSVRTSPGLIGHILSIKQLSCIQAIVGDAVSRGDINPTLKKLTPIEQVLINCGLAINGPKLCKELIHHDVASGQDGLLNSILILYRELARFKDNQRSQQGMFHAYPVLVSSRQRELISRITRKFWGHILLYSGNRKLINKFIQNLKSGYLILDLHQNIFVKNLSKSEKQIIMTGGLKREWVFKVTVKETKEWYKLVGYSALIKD
Chain of T7 polymerase (P00573 whole entry): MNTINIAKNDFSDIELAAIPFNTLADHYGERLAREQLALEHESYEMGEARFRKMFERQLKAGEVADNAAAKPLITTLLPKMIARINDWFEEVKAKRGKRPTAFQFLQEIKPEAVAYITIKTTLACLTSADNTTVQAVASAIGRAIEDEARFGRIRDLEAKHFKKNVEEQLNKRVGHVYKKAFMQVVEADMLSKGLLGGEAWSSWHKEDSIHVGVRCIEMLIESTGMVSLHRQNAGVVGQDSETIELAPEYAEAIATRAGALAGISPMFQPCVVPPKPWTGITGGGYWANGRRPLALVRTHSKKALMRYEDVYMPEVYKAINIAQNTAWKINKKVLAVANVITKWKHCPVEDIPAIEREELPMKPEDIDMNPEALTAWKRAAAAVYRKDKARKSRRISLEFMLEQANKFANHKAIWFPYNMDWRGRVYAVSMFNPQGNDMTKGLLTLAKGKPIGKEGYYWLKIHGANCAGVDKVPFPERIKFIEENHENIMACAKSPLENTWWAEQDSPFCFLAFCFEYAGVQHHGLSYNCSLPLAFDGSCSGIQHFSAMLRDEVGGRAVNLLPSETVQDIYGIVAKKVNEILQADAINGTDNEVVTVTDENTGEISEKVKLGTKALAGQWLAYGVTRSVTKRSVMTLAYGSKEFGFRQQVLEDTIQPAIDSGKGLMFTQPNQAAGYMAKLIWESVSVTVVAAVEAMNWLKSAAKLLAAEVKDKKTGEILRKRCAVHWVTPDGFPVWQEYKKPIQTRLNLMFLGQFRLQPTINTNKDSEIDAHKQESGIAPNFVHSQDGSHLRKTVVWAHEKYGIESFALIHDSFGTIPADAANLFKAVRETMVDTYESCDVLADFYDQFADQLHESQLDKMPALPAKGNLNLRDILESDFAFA

Broadly, the IC50 is the point on the concentration scale where inhibition reaches its midpoint. One may read the CC50 as the concentration that lowers cell viability or growth by half. Low readings indicate harm at low concentration, high ones better tolerance by the cells. `Cc1ccc2[nH]c(=O)c(CNS(=O)(=O)c3ccccc3)c(-c3ccccc3)c2c1` [compound 68290]: in the data set on recombinant MV-Edm, the IC50 was found to be 7700 nM. Also, in the data set with cells, the CC50 was over 150 µM. The “concentration giving 50% reduction of the number of live cells” value in the data set on Vero cells (trypan-blue exclusion) is recorded as “approximately 75 μM”.
Turning to `Cn1nc(C(F)(F)F)cc1C(=O)Nc1ccc(S(=O)(=O)N2CCCC2)cc1` [compound 16677, 1-methyl-3-(trifluoromethyl)-N-[4-(pyrrolidinylsulfonyl)-phenyl]-1H-pyrazole-5-carboxamide], the IC50 with recombinant MV-Edm was about 240 nM; in data set [2], 28 µM; in data set [3] it was over 75 µM. Further, the “change of IC50 with 10 mg/ml BSA or five-fold higher virus inoculum” value with MV-Anc [1] is reported as “no significant differences were observed”. The “antiviral activity after pre-incubation in cell culture medium” value in the data set on MV-Anc [4] is recorded as “no loss in antiviral activity”. Further, the “inhibitory activity after dialysis prior to infection (reversibility)” value with MV [5] is listed as “completely ablated by dialysis”. For the same compound, the “inhibition of MV-Ibd (genotype B3, resistant to MV entry inhibitors)” value in data set [6] is “efficiently inhibited”. In addition, the “effect of pH 3.0 wash on virus yields after absorption in presence of compound” value with MV [7] is “only slightly affected”. Moreover, in the data set on MV [8], the “reduction in virus yields” value is “approximately 99.9%”. For the same compound, the “CAT expression in MV minireplicon assay” value on MV polymerase complex is recorded as “strong dose-dependent inhibition of CAT expression”. In addition, the “IC50 in minigenome assay relative to IC50 against MV isolates” value on MV polymerase complex is “about 25 times”. The “effect on Nipah virus minireplicon” value on Nipah virus polymerase is given as “no effect”. The “F protein produced in cell-free transcription/translation” value at T7 polymerase was “Equal amounts of F protein were detected”. Besides, in the data set on cells, the CC50 was over 150 µM. Besides, the “number of live cells, of solvent-treated controls” value in the data set with Vero cells (compound concentration 500 μM) is listed as “approximately 80%”.
`O=C(NC(=O)N(c1ccc(Cl)cc1)S(=O)(=O)c1ccccc1)Nc1ccccc1Cl` [compound 15960]: the IC50 in the data set on recombinant MV-Edm is 3400 nM. Besides, the CC50 in the data set with cells was found to be 120 µM.
Taken in the same sequence, the figures for `Cc1ccc2nsnc2c1S(=O)(=O)Nc1ccc(Cl)cc1` [compound 99920] were 1300 nM and 100 µM.

The values above are taken from patent publication US8729059B2, “Paramyxovirus family inhibitors and methods of use thereof” (priority 2007, dated 2014).
